Where two headings read alike, the source gives them in different places.
Tests used:
[1] = test system: Pelagia noctiluca; assay: in vitro inhibition of cnidocyst discharge, physical contact with a gelatin probe; type: cell-based; conditions: 0.5 M in gelatin probe; for Discharged cnidocysts/mm^2 (%): control = 100; for Inhibition (%): versus control
Method: The efficacy of plant extracts and phytocompounds, in inhibiting cnidocyst discharge of Pelagia noctiluca (which is one of the most common species along the Mediterranean Sea) was evaluated by physical contact with a gelatin probe. Said probes, besides stimulating the cnidocyte battery, retained the different types of discharged cnidocysts that can have different sizes, thereby allowing a quantitative evaluation of the response.
Each gelatin probe was made coating one end of a 6 cm length of monofilament fishing line (1 mm diameter) with 25% (w/v) gelatin in deionized water and then placed in a humidified atmosphere during 30 minutes for gelatin solidification. The different substances to be tested were dissolved in deionized water at selected concentrations before the addition of gelatin: oat extract (Burgundi Cosmetics) and tea extract (Symrise lberica) were used at a final concentration of active agent of 0.025 % (w/v); dipotassium glycyrrhizate and hydroxytyrosol were used at a concentration of 0.5 M. Plain gelatin covered probes (no embebed active compound) were used as controls and represented maximum discharge figures.
After solidification, each gelatin probe was gently wiped across oral arms of Pelagia noctiluca 5 times from 1 to 5 seconds in the tanks. The probes were then placed in humidified atmosphere plates and observed under a steroemicroscope for cnidocyst quantification. Individual cnidocysts that had discharged into the gelatin probes were counted in 7 different fields of view and the mean value was calculated. Results are the average of triplicate probes.
An inhibitory effect was considered if the substance diminished the number of discharged nematocytes per mm^2 of gelatin probe as compared with controls.
The graphical representation of the interaction between two active compounds could be expressed as follows. […] The straight line connecting the effects of both substances on their own is the locus of points that will produce this effect in a simple additive combination, the additivity line.
FIG. 1 and FIG. 2 represent, respectively, the interaction between oat extract and lanthanum and tea extract and lanthanum in the inhibition of cnidocyst discharge. The number of discharged cnidocysts in Pelagia noctiluca was analysed for each combination of active agents by physical contact with a gelatin probe as described in Example 2. The doses of each of the constituents are referred as concentrations of active agent, i.e. of pure oat or green tea extract, and lanthanum cation.

[2] = test system: in situ cnidocytes of Pelagia noctiluca (Scyphozoa); conditions: cited from earlier work

SMILES | Discharged cnidocysts/mm^2 (%) [1] | Inhibition (%) [1] | cnidocyst discharge ([2]; oral arms previously treated with 20 µmol/L) | cnidocyst discharge ([2]; oral arms previously treated with 2 mmol/L)
OCCc1ccc(O)c(O)c1 [WHidroxytyrosol, hydroxytyrosol] | 43,6% | -56,4% | – | –
[Gd+3] [Gd^3+, gadolinium] | – | – | the discharge was inhibited | –
[La+3] [La^3+, lanthanum] | – | – | – | the discharge was inhibited
CC1(C)[C@@H](O[C@H]2O[C@H](C(=O)O)[C@@H](O)[C@H](O)[C@H]2O[C@@H]2O[C@H](C(=O)O)[C@@H](O)[C@H](O)[C@H]2O)CC[C@]2(C)[C@H]3C(=O)C=C4[C@@H]5C[C@@](C)(C(=O)O)CC[C@]5(C)CC[C@@]4(C)[C@]3(C)CC[C@@H]12 [Dipotassium glycyrrhizate, dipotassium glycyrrhizate] | 32,7% | -67,3% | – | –

Reference: patent EP2363135B1, “Anti-jellyfish compositions” (Antonio Puig, S.A., priority 2010, dated 2011)
